Test results: patent publication US10766942B2, “Fragments of syndecan-2 having anti-angiogenic activity” (Queen Mary University of London, priority 2014, dated 2020)

Experiments:
brain ECs = test: Scratch wound migration assay on brain ECs with murine syndecan-2 GST fusion proteins; assay type: cell-based; conditions: 0.5 μM fusion protein, vs GST alone
Method: Scratch wound migration assays were performed in the presence of 0.5 μM of the fusion proteins indicated on brain ECs. Cell migration is measured by time lapse microscopy using an Olympus IX81 microscope with a controlled environment chamber set at 37° C., 10% CO2. Images were captured every 30 minutes using a Hamamatsu Orca ER digital camera and processed using Cell^M software (Olympus). (A) Phase contrast images 9 hours after the scratch was made. (B) EC migration speed is reduced in the presence of S2ED proteins containing the 18aa regulatory domain. Cell speed data represents mean measurements from at least 25 individual cells at the leading edge per treatment.
Migration assays were also performed on brain ECs in the presence of murine syndecan-2 GST fusion proteins—either S2ED or the truncated forms of this protein (S2EDΔP^124-F^141 and S2EDΔL^73-G^123).
Scratch wound migration assays: Scratch wound migration assays were performed on confluent monolayers of ECs. Wounds were made using a pipette tip, and fusion proteins were added to the medium and images were captured every 30 minutes for 12 hours by time lapse microscopy using an Olympus IX81 microscope. Percentage wound closure was calculated and individual cells tracked using Image J.

[1] = system: Rat aortas (aortic ring sections); test: Rat aortic ring angiogenic sprouting assay in collagen I matrices; assay type: cell-based; conditions: 0.5 μM in collagen I matrix; rat aortic rings; vs untreated and GST controls
Method: (A) Diagram of the murine syndecan-2 mutant proteins used in this study. (B) Rat aortas were seeded in collagen I matrices as above containing 0.5 μM of GST(control), S2ED or the mutant forms of S2ED. Sprouts from 8 rings per condition were counted and the mean calculated. Error bars represent the SEM and significance was calculated using a one way ANOVA with Bonferroni multiple comparison (p***<0.005, p****<0.0001).
In another assay with murine peptides, full length S2ED, S2EDΔP^124-F^141 (lacking adhesion regulatory domain) or S2EDΔL^73-G^123 (truncated form containing only the adhesion regulatory residues) were incorporated into collagen matrices in which aortic ring sections were embedded (FIGS. 4A and B).
Aortic ring assay: Thoracic aortas dissected from cervically dislocated 180-200 g male wistar rats (Harlan Laboratories) or 6 week old C57BL/6 mice (Charles River) were sliced into 0.5 mm sections and incubated overnight in serum free OptiMEM (Invitrogen) at 37° C. […] Angiogenic sprouts from rat and mouse aortas were counted after 4 days and 8 days respectively (Method based on that of Nicosia and Ottinetti (Laboratory Investigation 63:115-122, 1990) and modified in De Rossi et al. (Journal of Genetic Syndromes & Gene Therapy 4, 2013).

CD148 = target: T1, CD148 (Mus musculus, UniProt Q64455); test: CD148 pull down from EC lysates with GST fusion protein coated beads, Western blot; assay type: binding; conditions: protein-coated beads as bait
T1 construct: endogenous in cells; bEND3.1 cells
T1 sequence (Q64455 29-1238): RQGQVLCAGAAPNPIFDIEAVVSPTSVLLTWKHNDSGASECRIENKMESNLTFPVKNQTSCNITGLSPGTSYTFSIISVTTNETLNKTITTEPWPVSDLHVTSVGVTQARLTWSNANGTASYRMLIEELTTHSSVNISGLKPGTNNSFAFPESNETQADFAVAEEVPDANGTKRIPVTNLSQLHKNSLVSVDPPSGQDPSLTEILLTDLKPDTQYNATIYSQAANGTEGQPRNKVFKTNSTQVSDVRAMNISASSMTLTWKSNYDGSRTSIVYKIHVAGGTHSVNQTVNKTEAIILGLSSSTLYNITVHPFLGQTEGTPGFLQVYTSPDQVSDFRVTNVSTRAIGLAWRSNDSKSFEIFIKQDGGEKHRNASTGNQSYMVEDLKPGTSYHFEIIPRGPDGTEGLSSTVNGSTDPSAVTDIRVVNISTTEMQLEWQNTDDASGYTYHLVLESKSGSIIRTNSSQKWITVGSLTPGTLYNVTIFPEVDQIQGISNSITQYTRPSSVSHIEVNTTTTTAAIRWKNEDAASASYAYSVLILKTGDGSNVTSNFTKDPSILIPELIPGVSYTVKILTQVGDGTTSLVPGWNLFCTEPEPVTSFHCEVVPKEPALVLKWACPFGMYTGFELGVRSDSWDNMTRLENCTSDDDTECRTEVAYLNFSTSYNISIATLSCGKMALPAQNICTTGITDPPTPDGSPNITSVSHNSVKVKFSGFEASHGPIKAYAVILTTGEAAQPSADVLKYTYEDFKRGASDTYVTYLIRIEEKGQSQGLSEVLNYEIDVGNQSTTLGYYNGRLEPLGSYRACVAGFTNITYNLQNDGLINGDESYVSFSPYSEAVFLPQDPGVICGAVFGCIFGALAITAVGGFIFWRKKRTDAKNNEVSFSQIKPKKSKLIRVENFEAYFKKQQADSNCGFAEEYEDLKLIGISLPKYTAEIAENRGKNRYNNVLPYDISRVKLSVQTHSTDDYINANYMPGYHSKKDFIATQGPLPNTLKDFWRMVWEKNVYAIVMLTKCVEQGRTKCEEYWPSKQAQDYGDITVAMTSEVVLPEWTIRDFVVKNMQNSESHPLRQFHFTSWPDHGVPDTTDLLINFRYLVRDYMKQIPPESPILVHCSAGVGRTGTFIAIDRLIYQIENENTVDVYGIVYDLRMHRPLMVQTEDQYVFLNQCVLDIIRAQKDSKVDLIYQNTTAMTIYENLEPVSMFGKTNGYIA
Method: (A) bEND3.1, MLEC and sEND cells express CD148. Western blot of lysates from the EC lines indicated were probed with antibodies to CD148 or β-tubulin. (B) CD148 interacts with murine syndecan extracellular core protein (S2ED). Cell lysates from sEND cells were incubated with beads coated with GST(control), S2ED, S2EDΔP^124-F^141 or S2EDΔL^73-G^123. Precipitates were analysed by Western blot for the presence of CD148. CD148 was only pulled down by forms of S2ED which contain the C-terminal 18 amino acid adhesion regulatory domain. Blot is representative of 4 experiments.
In fibroblasts the protein tyrosine phosphatase receptor CD148 interacts directly with the adhesion regulatory domain of S2ED leading to β1 integrin mediated cell attachment and spreading (Whiteford et al., 2011 Mol Biol Cell, 22(19):3609-24). To determine whether CD148 is a mediator for EC responses to S2ED the expression of CD148 on ECs from brain, lung and skin was confirmed.
CD148 pulldown and Western blot: Confluent bEND3.1 cells were lysed in 1% tritonx100 in TBS containing HALT protease and phosphatase inhibitors (Pierce). GST and S2ED were bound to glutathione-sepharose beads (GE Healthcare) and were added to cell lysates and incubated for 1 hour. Beads were isolated by centrifugation and washed twice in TBS, prior to incubation in Laemmli buffer and analysis by Western blot using standard procedures.

Pull-down of CD148 from EC lysates (CD148) | Substance | EC cell migration (wound closure) (brain ECs) | Angiogenic sprout formation [1]
successfully pull-down CD148 | S2ED: murine syndecan-2 extracellular core protein, full length, GST fusion protein (SEQ ID NO 3) | inhibited EC cell migration | severely compromised
successfully pull-down CD148 | S2EDΔL^73-G^123: truncated murine syndecan-2 GST fusion protein containing only the adhesion regulatory residues (SEQ ID NO 5) | inhibited EC cell migration | severely compromised
No CD148 was evident | S2EDΔP^124-F^141: murine syndecan-2 GST fusion mutant lacking adhesion regulatory domain (SEQ ID NO 4) | did not affect cell migration | –
